According to ChEMBL document CHEMBL1201862, “PubChem BioAssay data set” (2004):
Calls of active or inactive are those of the source.

Key:
[1] = tested on: Vero; assay: cells; assay type: functional, cell-based; conditions: Chlorocebus sabaeus
[2] = Luminescence Cell-Based Dose Response HTS to Identify Inhibitors of 5'UTR Stem-Loop Driven Prion Protein mRNA Translation in H4 Neuroglioblastoma Cells. [Related pubchem assays: 1827 (Project Summary), 1813 (Primary HTS)]; assay type: functional
[3] = tested on: Vero; assay: cells; assay type: functional; conditions: Chlorocebus sabaeus
[4] = inhibitors of firefly luciferase expression or activity, dose response, H4 neuroglioma cells, luminescence (AID 1990); assay type: functional, cell-based
[5] = HEp-2 cell cytotoxicity, dose response, cytotoxicity control for RSV inhibitor project, HTS (AID 2410); assay type: functional; conditions: human respiratory syncytial virus
[6] = cells
[7] = inhibitors of SNCA 5'UTR-driven reporter translation, confirmation, H4 neuroglioma cells, luminescence (AID 1988); assay type: functional, cell-based
[8] = biological target: T1, Carboxy-terminal domain RNA polymerase II polypeptide A small phosphatase 1 (Homo sapiens, UniProt Q9GZU7); assay: inhibitors of CTDSP1, concentration-response testing, biochemical assay, absorbance-based, actives from ultra-high-throughput screening (AID 540297); assay type: functional
T1 sequence (Q9GZU7 whole entry): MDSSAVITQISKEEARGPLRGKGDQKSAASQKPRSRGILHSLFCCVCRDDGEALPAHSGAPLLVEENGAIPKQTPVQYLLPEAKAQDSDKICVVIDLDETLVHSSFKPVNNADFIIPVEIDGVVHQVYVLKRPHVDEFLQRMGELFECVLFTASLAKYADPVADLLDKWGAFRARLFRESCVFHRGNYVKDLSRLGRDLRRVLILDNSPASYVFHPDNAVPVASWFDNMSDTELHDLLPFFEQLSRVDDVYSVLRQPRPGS

[9] = biological target: Genome polyprotein (dengue virus type 2, UniProt P29990); assay: Dengue-2 NS5 methyltransferase inhibitors, primary screen, biochemical, confirmation dose response (AID 588689); assay type: functional
Chain of Genome polyprotein (P29990 2492-3391 limits assumed): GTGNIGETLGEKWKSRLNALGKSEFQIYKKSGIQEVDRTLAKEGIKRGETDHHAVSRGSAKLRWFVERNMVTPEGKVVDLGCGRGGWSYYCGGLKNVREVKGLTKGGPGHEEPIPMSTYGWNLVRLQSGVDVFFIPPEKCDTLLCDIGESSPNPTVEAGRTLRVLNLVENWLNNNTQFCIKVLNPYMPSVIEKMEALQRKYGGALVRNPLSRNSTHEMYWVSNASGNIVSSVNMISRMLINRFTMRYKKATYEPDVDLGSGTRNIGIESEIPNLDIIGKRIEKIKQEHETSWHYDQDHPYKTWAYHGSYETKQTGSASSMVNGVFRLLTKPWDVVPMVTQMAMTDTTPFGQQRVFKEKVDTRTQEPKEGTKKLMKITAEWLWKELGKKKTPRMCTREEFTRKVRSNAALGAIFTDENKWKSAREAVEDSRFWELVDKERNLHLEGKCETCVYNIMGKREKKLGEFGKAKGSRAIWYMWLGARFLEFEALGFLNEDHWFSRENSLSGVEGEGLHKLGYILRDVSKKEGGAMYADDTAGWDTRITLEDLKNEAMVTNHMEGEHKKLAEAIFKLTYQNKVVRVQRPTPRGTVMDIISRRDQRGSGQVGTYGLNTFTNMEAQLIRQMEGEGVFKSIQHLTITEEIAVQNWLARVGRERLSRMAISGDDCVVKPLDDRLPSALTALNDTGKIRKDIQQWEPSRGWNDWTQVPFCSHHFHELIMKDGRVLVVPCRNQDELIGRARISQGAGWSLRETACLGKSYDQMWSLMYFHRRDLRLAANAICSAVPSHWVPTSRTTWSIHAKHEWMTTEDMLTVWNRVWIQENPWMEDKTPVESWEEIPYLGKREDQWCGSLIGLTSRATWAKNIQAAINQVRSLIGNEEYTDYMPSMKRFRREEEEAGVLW

[10] = biological target: T2, Cytochrome P450 1A2 (Homo sapiens, UniProt P05177);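 note: PubChem cytochrome P450 panel assay, CYP1A2 panel member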
T2 sequence (P05177 whole entry): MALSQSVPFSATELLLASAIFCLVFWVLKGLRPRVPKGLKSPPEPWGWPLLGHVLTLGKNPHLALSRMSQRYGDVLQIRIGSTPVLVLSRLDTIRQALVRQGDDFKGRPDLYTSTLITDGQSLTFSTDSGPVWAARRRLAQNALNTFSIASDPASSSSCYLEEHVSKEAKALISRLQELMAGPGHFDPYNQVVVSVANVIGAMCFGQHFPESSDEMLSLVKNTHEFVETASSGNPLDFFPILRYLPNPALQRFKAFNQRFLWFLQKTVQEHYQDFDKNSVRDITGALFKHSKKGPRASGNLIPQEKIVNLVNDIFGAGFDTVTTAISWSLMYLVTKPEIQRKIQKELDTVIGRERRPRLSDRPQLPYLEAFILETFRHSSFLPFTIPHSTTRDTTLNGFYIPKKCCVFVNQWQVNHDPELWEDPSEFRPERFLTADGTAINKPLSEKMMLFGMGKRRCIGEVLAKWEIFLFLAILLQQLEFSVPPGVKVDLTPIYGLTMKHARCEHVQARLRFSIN

[11] = biological target: T3, Coagulation factor XII (Homo sapiens, UniProt P00748); assay type: functional;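 note: activated factor XIIa alpha cleaving a fluorogenic AMC peptide substrate; inhibitor potency from loss of enzyme activity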
T3 sequence (P00748 whole entry): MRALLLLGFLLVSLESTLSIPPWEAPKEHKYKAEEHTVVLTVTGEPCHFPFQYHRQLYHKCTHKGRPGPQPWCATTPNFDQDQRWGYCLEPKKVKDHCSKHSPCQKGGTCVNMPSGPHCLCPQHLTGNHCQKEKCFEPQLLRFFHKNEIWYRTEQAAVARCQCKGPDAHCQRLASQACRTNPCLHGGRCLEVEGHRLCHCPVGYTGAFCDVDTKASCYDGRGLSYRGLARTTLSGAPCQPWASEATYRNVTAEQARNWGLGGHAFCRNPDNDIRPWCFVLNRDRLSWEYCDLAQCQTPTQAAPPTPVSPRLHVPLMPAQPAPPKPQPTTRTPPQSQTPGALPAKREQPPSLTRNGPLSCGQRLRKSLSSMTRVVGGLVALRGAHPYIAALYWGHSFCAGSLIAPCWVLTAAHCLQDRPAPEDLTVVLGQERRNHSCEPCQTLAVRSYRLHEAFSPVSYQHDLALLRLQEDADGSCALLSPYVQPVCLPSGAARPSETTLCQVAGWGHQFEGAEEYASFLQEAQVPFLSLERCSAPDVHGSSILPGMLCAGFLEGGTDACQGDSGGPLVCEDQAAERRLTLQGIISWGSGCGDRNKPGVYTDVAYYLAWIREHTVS

[12] = biological target: Cytochrome P450 2C19 (Homo sapiens, UniProt P33261); assay: Cytochrome panel assay with activity outcomes. Panel member name: p450-cyp2c19 Compounds with AC50 equal or less than 10 uM are considered active; assay type: functional; conditions: read-out: AC50
Chain of Cytochrome P450 2C19 (P33261 whole entry): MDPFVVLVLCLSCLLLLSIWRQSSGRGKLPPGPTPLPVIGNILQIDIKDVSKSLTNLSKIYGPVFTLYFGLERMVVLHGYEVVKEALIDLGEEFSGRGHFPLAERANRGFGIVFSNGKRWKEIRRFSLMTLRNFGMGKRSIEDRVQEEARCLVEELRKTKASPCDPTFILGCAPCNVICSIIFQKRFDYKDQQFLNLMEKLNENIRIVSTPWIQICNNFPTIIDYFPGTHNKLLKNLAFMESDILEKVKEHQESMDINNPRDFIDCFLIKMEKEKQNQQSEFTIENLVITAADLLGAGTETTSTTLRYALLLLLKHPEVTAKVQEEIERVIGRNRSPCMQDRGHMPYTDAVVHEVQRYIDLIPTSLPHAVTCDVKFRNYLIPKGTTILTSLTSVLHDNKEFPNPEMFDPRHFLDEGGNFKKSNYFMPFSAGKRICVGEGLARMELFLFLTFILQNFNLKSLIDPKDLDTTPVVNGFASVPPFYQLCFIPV

[13] = biological target: Beta-2 adrenergic receptor (Homo sapiens, UniProt P07550); assay: beta2AR agonists driving receptor internalization, dose response, cell-based, FAP fluorogen, flow cytometry, cherry pick 1 (AID 588763); assay type: functional
Chain of Beta-2 adrenergic receptor (P07550 whole entry): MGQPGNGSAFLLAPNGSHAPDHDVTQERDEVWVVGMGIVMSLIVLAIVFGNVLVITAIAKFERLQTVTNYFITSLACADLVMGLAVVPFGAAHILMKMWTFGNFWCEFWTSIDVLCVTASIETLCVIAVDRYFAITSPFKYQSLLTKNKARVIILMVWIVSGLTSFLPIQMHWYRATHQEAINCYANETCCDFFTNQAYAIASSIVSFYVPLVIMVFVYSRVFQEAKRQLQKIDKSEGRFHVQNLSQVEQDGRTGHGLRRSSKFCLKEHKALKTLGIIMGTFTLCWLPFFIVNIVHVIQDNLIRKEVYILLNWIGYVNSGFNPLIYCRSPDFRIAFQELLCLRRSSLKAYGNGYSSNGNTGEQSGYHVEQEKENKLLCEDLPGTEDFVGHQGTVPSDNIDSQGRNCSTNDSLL

With CCOc1ccccc1CNC(=O)c1cc2oc3ccccc3c2n1CC the IC50 [1] was > 12.5 µM (active), the EC50 [2] was 16.6 µM (active) and the CC50 [3] was > 25 µM (active). For the same compound, the EC50 [4] was > 120 µM (not active), the CC50 [5] was 13.8 µM (active) and the IC50 [6] was 42.3 µM (active). The EC50 [7] was 14.9 µM (active).
In the case of O=C(O)c1ccc(Oc2ccc(S(=O)(=O)c3ccc(C(=O)O)c(C(=O)O)c3)cc2)cc1, the IC50 [8] is reported as 6.97 µM (active).
For COc1ccccc1N(O)C1CC(=O)N(c2ccc(F)cc2)C1=O (centres undefined), the IC50 [9] was 62 µM (active).
In the case of Cc1cc(OC(=O)c2ccc(Cl)cc2Cl)nc(C)n1, the AC50 [10] is reported as 28.2 µM (inconclusive), the IC50 [11] is reported as > 50 µM (inconclusive) and the AC50 [12] is reported as 28.2 µM (inconclusive).
In the case of O=C(C(c1ccccc1)c1ccccc1)N1CCN(c2ccccn2)CC1, the EC50 [13] is reported as 0.0379 µM (active).
For O=C1CC(c2ccccc2)(c2ccccc2)c2ccccc21, the EC50 [13] was 17.1 µM (inactive).
